# Legend:
# [1] = test system: VHL knockdown xenograft tumors; assay: Microvessel density by CD-31 immunolabeling in xenograft tumors; type: in vivo, SCID mice
# Description: FIGS. 2A-2C. Effects of VHL knockdown on angiogenesis. (a) Microvessel density was quantified by CD-31 immunolabeling (arrows) in the xenograft tumors, and difference between CCI-779 treated (+) and vehicle (−) treated mice quantified (n=6 in each group). P<0.0033 for microvessel density counts in VHL shRNA compared to vector only (see blue bars). (b) Similar number of cells were plated and maintained in 10% serum rich media, in the presence (+) or absence (−) of 10 nM CCI-779. Thirty-six hours later, conditioned media was analyzed by anti-VEGF ELISA and cell extracts prepared for protein quantification. VEGF values were normalized to total cellular protein. Error bars equal one standard deviation (n=3). (c) Immunohistochemistry for VEGF protein was performed on paraffin embedded tumor xenografts from vehicle and CCI-779 treated mice.
# Xenograft tumor samples were fixed in 10% buffered formalin and embedded in paraffin. […] Microvessel density was quantified by as described previously (Weidner, N. et al. J Natl Cancer Inst 84, 1875-87 (1992)). Briefly, microvessel density was determined by light microscopy in areas of the xenograft tumor containing highest numbers of capillaries and small venules (microvessels) per area (i.e. neovascular “hotspots”) by scanning the tumor sections at low power (40× and 100×). […]
# [2] = test system: VHL knockdown xenograft tumors; assay: FDG microPET imaging of xenograft tumors; type: in vivo, SCID mice; conditions: within 24 hours, CCI-779 0.1 mg/kg i.p. every 12 hours; uptake normalized to liver
# Description: FIGS. 5A-5B. […] (a) Representative images of two SCID-mice bearing isogenic ACHN-xenograft tumors on the right flank before and after two doses of CCI-799 (0.1 mg/kg). Arrows indicate the location of subcutaneous xenograft tumors (innate increased signal intensity due to abdominal brown fat and glial tissue are observed in the thorax and skull of the mice). (b) Quantification of FDG uptake (+/−SEM) in SCID-mice bearing either ACHN-vector or ACHN-CSCG VHL shRNA subcutaneous xenografts. FDG-tumor uptake was normalized to hepatic FDG-uptake for each mouse. n=3 per group and experiments were repeated twice with identical results.
# Total RNA was extracted from SN12C-CSCG, ACHN-CSCG, SN12C-CSCG-VHLshRNA and ACHN-CSCG-VHL shRNA cell lines treated with vehicle or 10 nM of CCI-779 using the RNeasy kit (Qiagen). Two μg of total RNA was used as a template for the production of c DNA through reverse transcription. […] Threshold cycles (Ct's) for the RT samples were recorded. […] Tracer uptake by the tumors was expressed as the ratio between the maximum intratumoral and mean hepatic counts/pixel. All quantitative values are reported as mean±standard error of the mean (SEM).
smiles,measurement,setting,value
CO[C@H]1C[C@@H]2CC[C@@H](C)[C@@](O)(O2)C(=O)C(=O)N2CCCC[C@H]2C(=O)O[C@H]([C@H](C)C[C@@H]2CC[C@@H](OC(=O)C(C)(CO)CO)[C@H](OC)C2)CC(=O)[C@H](C)/C=C(\C)[C@@H](O)[C@@H](OC)C(=O)[C@H](C)C[C@H](C)/C=C/C=C/C=C/1C [CCI-779],angiogenesis as measured by microvessel density,[1]; CCI-779 treated vs vehicle,objective decrease in angiogenesis
same,decrease in microvessel density,"[1]; CD-31 staining, CCI-779 0.1 mg/kg vs vehicle",greater than 50%
same,FDG uptake of VHL knockdown tumors,[2],reduced to baseline
